The values below come from ChEMBL document CHEMBL1154065, “Discovery of novel P3 sulfonamide-capped inhibitors of HCV NS3 protease. Inhibitors with improved cellular potencies” (Bioorg Med Chem, 2009).

Series [1] deals with Hepatitis C virus. Briefly: Antiviral activity against Hepatitis C virus infected in human hepatoma cell by replicon assay. The class given is functional, Hepacivirus hominis. In general terms: In antiviral work, replicon cells carry a viral genome segment that copies itself.
Series [2] can be described thus: Inhibition of HCV NS3 protease by continuous spectrophotometric assay. Also noted: species or system Hepacivirus hominis.
A short description of series [3]: Selectivity for HCV NS3 protease over human neutrophil elastase.
A further series relates to Rattus norvegicus. Nature of the series: AUC (0 to 6 hrs) in po dosed rat. Conditions: in vivo. Also noted: time < 6 hr, route oral. In kind it is ADME, organism-based, Plasma.
Series [4] deals with Hepatitis C virus. Briefly: Ratio of boceprevir EC90 to compound EC90 for Hepatitis C virus infected in human hepatoma cell. In kind it is functional, Hepacivirus hominis.
Series [5] can be described thus: AUC (0 to 6 hrs) in rat at 10 mg/kg, po. In kind it is ADME, organism-based. Also noted: time < 6 hr, dose 10 mg/kg, route oral. Particulars: plasma.
Series [6] is described as follows: AUC (0 to 6 hrs) in monkey at 3 mg/kg, po. In kind it is ADME, organism-based, Macaca mulatta. Particulars: rhesus monkey, plasma. More on the design: time < 6 hr, dose 3 mg/kg, route oral.

Usually EC90 stands for the concentration at which the effect reaches the 90% level. As a reminder, the Ki is a dissociation constant, usually derived from enzyme kinetics or from competition with a known ligand. The compound `CC(C)[C@@H](CN(C)S(=O)(=O)c1cccs1)NC(=O)N[C@H](C(=O)N1C[C@H]2[C@@H]([C@H]1C(=O)NC(CC1CCC1)C(=O)C(N)=O)C2(C)C)C(C)(C)C` (some centres undefined) came in with an EC90 in the series on Hepatitis C virus [1] of 100 nM. The same compound showed an inhibition constant (Ki) in series [2] of 12 nM.

`CC[C@H](C)[C@@H](CN(C)S(=O)(=O)c1ccccc1)NC(=O)N[C@H](C(=O)N1C[C@H]2[C@@H]([C@H]1C(=O)NC(CC1CCC1)C(=O)C(N)=O)C2(C)C)C(C)(C)C` (some centres undefined) showed an EC90 in the series with Hepatitis C virus [1] of 250 nM. Moreover, in series [2], the affinity corresponds to a Ki of 13 nM.

With `CC(C)[C@H](CN(C)S(=O)(=O)c1ccccc1)NC(=O)N[C@H](C(=O)N1C[C@H]2[C@@H]([C@H]1C(=O)NC(CC1CC1)C(=O)C(N)=O)C2(C)C)C(C)(C)C` (some centres undefined), the EC90 in the series with Hepatitis C virus [1] is 130 nM. Besides, in series [3], the Selectivity ratio was 680. Besides, the Ki in series [2] came to 6 nM.

In the series with Hepatitis C virus [1], `CC(C)(C)NC(=O)N[C@H](C(=O)N1C[C@H]2[C@@H]([C@H]1C(=O)NC(CC1CCC1)C(=O)C(N)=O)C2(C)C)C(C)(C)C` (some centres undefined) [BOCEPREVIR] returned an EC90 of 350 nM. The Selectivity ratio in series [3] was determined as 2200. Moreover, the affinity in series [2] corresponds to a Ki of 14 nM.

In general, AUC refers to the area under the concentration-time curve, a measure of exposure. For the compound `C=CCNC(=O)C(=O)C(CCC)NC(=O)[C@@H]1[C@@H]2[C@H](CN1C(=O)[C@@H](NC(=O)N[C@H](CN(C)S(=O)(=O)CC)C(C)(C)C)C(C)(C)C)C2(C)C` (some centres undefined), in the series with Hepatitis C virus [1], the EC90 came out at 150 nM. Further, in series [2], the Ki is 10 nM. This compound showed an AUC with Rattus norvegicus of 0.34 µM·h.

Take `CN(C[C@@H](NC(=O)N[C@H](C(=O)N1C[C@H]2[C@@H]([C@H]1C(=O)NC(CC1CCC1)C(=O)C(N)=O)C2(C)C)C(C)(C)C)C(C)(C)C)S(=O)(=O)c1cccs1` (some centres undefined): the 90% effect level in the series on Hepatitis C virus [1] (EC90) was put at 60 nM. The same compound displayed a Ki in series [2] of 4 nM. The compound further showed an AUC in the series with Rattus norvegicus of 0.11 µM·h.

The compound `CN(C[C@@H](NC(=O)N[C@H](C(=O)N1C[C@H]2[C@@H]([C@H]1C(=O)NC(CC1CCC1)C(=O)C(N)=O)C2(C)C)C(C)(C)C)C(C)(C)C)S(=O)(=O)C1CC1` (some centres undefined) registered a 90% effect concentration (EC90) with Hepatitis C virus [1] of 90 nM. In series [2], this compound registered a Ki of 5 nM. Besides, the AUC in the series on Rattus norvegicus came to 0.09 µM·h.

The compound `CC(C)[C@@H](CN(C)S(=O)(=O)c1ccccc1)NC(=O)N[C@H](C(=O)N1C[C@H]2[C@@H]([C@H]1C(=O)NC(CC1CC1)C(=O)C(N)=O)C2(C)C)C(C)(C)C` (some centres undefined) showed an EC90 in the series with Hepatitis C virus [1] of 130 nM. In series [2], this compound returned a Ki of 8 nM.

Take `C=CCNC(=O)C(=O)C(CCC)NC(=O)[C@@H]1[C@@H]2[C@H](CN1C(=O)[C@@H](NC(=O)N[C@H](CN(C)S(=O)(=O)CC)C(C)(C)C)C1Cc3ccccc3C1)C2(C)C` (some centres undefined): in the series with Hepatitis C virus [1], the EC90 came out at 100 nM. Further, in series [2], the affinity, expressed as Ki, was 6 nM.

On to `CC(C)(C)[C@H](NC(=O)N[C@H](CNS(=O)(=O)c1ccccc1)C(C)(C)C)C(=O)N1C[C@H]2[C@@H]([C@H]1C(=O)NC(CC1CCC1)C(=O)C(N)=O)C2(C)C` (some centres undefined), for which the affinity in series [2], expressed as Ki, was 13 nM.

Take `CN(C[C@@H](NC(=O)N[C@H](C(=O)N1C[C@H]2[C@@H]([C@H]1C(=O)NC(CC1CCC1)C(=O)C(N)=O)C2(C)C)C(C)(C)C)C(C)(C)C)S(=O)(=O)c1ccccc1` (some centres undefined): the EC90 with Hepatitis C virus [1] came to 75 nM. This compound returned a Ki in series [2] of 5 nM.

`CN(C[C@@H](NC(=O)N[C@H](C(=O)N1C[C@H]2[C@@H]([C@H]1C(=O)NC(CC1CCC1)C(=O)C(N)=O)C2(C)C)C(C)(C)C)C(C)(C)C)S(C)(=O)=O` (some centres undefined) had an EC90 in the series on Hepatitis C virus [1] of 150 nM. Besides, the Ratio with Hepatitis C virus [4] is recorded as 2. In series [2], this compound registered a Ki of 5 nM. Also, in the series on Rattus norvegicus, the AUC was 0.06 µM·h.

One may read the AUC(0-t) as exposure summed from dosing to a finite time, without extrapolation to infinity. Compound `C=CCNC(=O)C(=O)C(CCCC)NC(=O)[C@@H]1[C@@H]2[C@H](CN1C(=O)[C@@H](NC(=O)N[C@H](CN(C)S(=O)(=O)N(C)C)C(C)(C)C)C1CCCCC1)C2(C)C` (some centres undefined) came in with an EC90 in the series with Hepatitis C virus [1] of 80 nM. The same compound gave an AUC(0-t) at 6 h in series [5] of 1.74 µM·h. This compound returned a Ki in series [2] of 6 nM.

As to `C=CCNC(=O)C(=O)C(CCCC)NC(=O)[C@@H]1[C@@H]2[C@H](CN1C(=O)[C@@H](NC(=O)N[C@H](CN(C)S(=O)(=O)CC)C(C)(C)C)C1Cc3ccccc3C1)C2(C)C` (some centres undefined), the EC90 with Hepatitis C virus [1] stood at 60 nM. Moreover, the Ratio with Hepatitis C virus [4] came out at 5. Moreover, the area under the curve AUC(0-t) at 6 h in series [6] was 0.69 µM·h; in series [5], 1.2 µM·h. The compound also registered a Ki in series [2] of 6 nM.

`CC(C)[C@@H](CN(C)S(C)(=O)=O)NC(=O)N[C@H](C(=O)N1C[C@H]2[C@@H]([C@H]1C(=O)NC(CC1CCC1)C(=O)C(N)=O)C2(C)C)C(C)(C)C` (some centres undefined) displayed an EC90 in the series with Hepatitis C virus [1] of 350 nM. In series [2], this compound showed a Ki of 4 nM.

`CCS(=O)(=O)N(C)C[C@@H](NC(=O)N[C@H](C(=O)N1C[C@H]2[C@@H]([C@H]1C(=O)NC(CC1CCC1)C(=O)C(N)=O)C2(C)C)C(C)(C)C)C(C)(C)C` (some centres undefined) displayed an EC90 in the series on Hepatitis C virus [1] of 150 nM. Besides, the Ki in series [2] was determined as 4 nM.

The compound `CC(C)[C@@H](CNS(C)(=O)=O)NC(=O)N[C@H](C(=O)N1C[C@H]2[C@@H]([C@H]1C(=O)NC(CC1CCC1)C(=O)C(N)=O)C2(C)C)C(C)(C)C` (some centres undefined) yielded a concentration for an effect of 90% (EC90) with Hepatitis C virus [1] of 2000 nM. The Ki in series [2] was 31 nM.

In the series with Hepatitis C virus [1], `CC(C)[C@@H](CNS(=O)(=O)c1ccccc1)NC(=O)N[C@H](C(=O)N1C[C@H]2[C@@H]([C@H]1C(=O)NC(CC1CC1)C(=O)C(N)=O)C2(C)C)C(C)(C)C` (some centres undefined) gave an EC90 of 550 nM. Also, the affinity in series [2], expressed as Ki, was 10 nM.

For the compound `C=CCNC(=O)C(=O)C(CCC)NC(=O)[C@@H]1[C@@H]2[C@H](CN1C(=O)[C@@H](NC(=O)N[C@H](CN(C)S(=O)(=O)c1ccccn1)C(C)(C)C)C(C)(C)C)C2(C)C` (some centres undefined), in the series with Hepatitis C virus [1], the EC90 was 180 nM. Besides, affinity in series [2] was put at a Ki of 14 nM. Moreover, the AUC in the series on Rattus norvegicus turned out to be 1.02 µM·h.

In series [2], `CC(C)C[C@@](C)(CN(C)S(=O)(=O)c1ccccc1)NC(=O)N[C@H](C(=O)N1C[C@H]2[C@@H]([C@H]1C(=O)NC(CC1CCC1)C(=O)C(N)=O)C2(C)C)C(C)(C)C` (some centres undefined) returned a Ki of 80 nM.

In the series on Hepatitis C virus [1], `C=CCNC(=O)C(=O)C(CCC)NC(=O)[C@@H]1[C@@H]2[C@H](CN1C(=O)[C@@H](NC(=O)N[C@H](CN(C)S(=O)(=O)N(C)C)C(C)(C)C)C1Cc3ccccc3C1)C2(C)C` (some centres undefined) returned an EC90 of 100 nM. For the same compound, the Ki in series [2] was found to be 11 nM.

For the compound `CN(CC1(NC(=O)N[C@H](C(=O)N2C[C@H]3[C@@H]([C@H]2C(=O)NC(CC2CCC2)C(=O)C(N)=O)C3(C)C)C(C)(C)C)CCCCC1)S(=O)(=O)c1ccccc1` (some centres undefined), the EC90 in the series with Hepatitis C virus [1] is 400 nM. In series [2], this compound gave a Ki of 12 nM.

`CC(C)[C@H](NC(=O)N[C@H](C(=O)N1C[C@H]2[C@@H]([C@H]1C(=O)NC(CC1CC1)C(=O)C(N)=O)C2(C)C)C(C)(C)C)C(=O)OC(C)(C)C` (some centres undefined) displayed an EC90 with Hepatitis C virus [1] of 200 nM. In series [2], this compound registered a Ki of 6 nM.

For `CC(C)[C@@H](CNS(=O)(=O)c1cccs1)NC(=O)N[C@H](C(=O)N1C[C@H]2[C@@H]([C@H]1C(=O)NC(CC1CCC1)C(=O)C(N)=O)C2(C)C)C(C)(C)C` (some centres undefined), in the series on Hepatitis C virus [1], the 90% effect level (EC90) was put at 600 nM. This compound displayed a Ki in series [2] of 23 nM.

In turn, `C=CCNC(=O)C(=O)C(CCC)NC(=O)[C@@H]1[C@@H]2[C@H](CN1C(=O)[C@@H](NC(=O)N[C@H](CN(C)S(=O)(=O)c1cccs1)C(C)(C)C)C(C)(C)C)C2(C)C` (some centres undefined) had a concentration for an effect of 90% (EC90) in the series on Hepatitis C virus [1] of 260 nM. The compound also gave a Ki in series [2] of 10 nM. The compound also yielded an AUC with Rattus norvegicus of 1.38 µM·h.

Take `CC(C)C(CN(C)S(=O)(=O)c1ccccc1)NC(=O)N[C@H](C(=O)N1C[C@H]2[C@@H]([C@H]1C(=O)NC(CC1CCC1)C(=O)C(N)=O)C2(C)C)C(C)(C)C` (single isomer, unassigned): it took 140 nM to reach the 90% level in the series on Hepatitis C virus [1] (EC90). Besides, the Selectivity ratio in series [3] was determined as 3100. Moreover, affinity in series [2] was put at a Ki of 8 nM.
